The results in this text go back to patent US9429582B2, “Tyrosine-phosphorylated WBP2, a novel cancer target and biomarker” (National University of Singapore, priority 2010, dated 2016).

Molecules are shown by their SMILES. Read-outs that look alike come from different tables or passages of the source.

Holding throughout (format): cell-based, human
Experiment [1] relates to WBP2-Y192-231E mutant-expressing MCF7. Nature of the experiment: Cell proliferation (MTS / cell numbers) of WBP2-Y192-231E mutant-expressing MCF7. As to the method: (§1) A: Whole cell lysates from vector, WBP2-WT, WBP2-Y192-231E mutant and WBP2-Y192-231F mutant expressing MCF7 or Y192-231E mutant expressing MCF7 with WBP2 knockdown were used for IB analysis with antibodies indicated. B: Vector, WBP2-WT, WBP2-Y192-231E mutant or WBP2-Y192-231F mutant-expressing MCF7 were co-transfected with TOPFlash (top panel) or ERE-Luciferase (bottom panel) reporter construct. For cells co-transfected ERE-luciferase, they were either left alone or stimulated with 50 ng/ml Wnt3a ligand for 16 hrs. TCF/ERα luciferase activities in various conditions were then assayed. **P<0.01, ***P<0.001, Student's t-test (2-tailed). C: Vector or WBP2-Y192-231E mutant-expressing MCF7 were treated with indicated concentrations of Tamoxifen(Tam) and/or FH535. Cell numbers were measured. D: Whole cell lysates from WBP2-Y192-231E mutant-expressing MCF7 treated with 2 μM Tam and/or 15 μM FH5353 were harvested at day 2-4 post-treatment and used for IB analysis with antibodies indicated.
Effect of knockdown of E2F1 and E2F3 on MCF7 cells overexpressing WBP2-Y192-231E. A. MCF7 cells expressing WBP2-Y192-231E were transfected with indicated siRNAs and knockdown efficiency was confirmed using western blotting. B. Cells were co-transfected with indicated siRNAs and E2F reporter plasmid and harvested for luciferase assay after 48 hours. Luciferase readings were normalized against constitutive TK promoter renilla luciferase readings. C. Cells were transfected with indicated siRNAs and BrdU incorporation assay was performed. Percentages of BrdU positive cells relative to control siRNA treated cells were plotted as bar charts. D. Cells were transfected with indicated siRNAs. MTS assay was performed on day 3. Percentages of cell proliferation relative to control siRNA treated cells were plotted as bar charts.
Whole cell lysates from vector, WBP2-WT, WBP2-Y192-231E mutant and WBP2-Y192-231F mutant expressing MCF7 (A) or Y192-231E mutant expressing MCF7 with WBP2 knockdown (B) were used for IB analysis with antibodies indicated. Their expression levels were quantified in three independent experiments and the averages were presented relative to actin. Representative blots (order in lanes from left to right: vector, WBP2, Y192-231E, Y192F) were presented as insets to the bar graphs. **P<0.01, ***P<0.001, Student's t-test (2-tailed) relative to vector. Vector, WBP2-WT, WBP2-Y192-231E mutant or WBP2-Y192-231F mutant-expressing MCF7 were cotransfected with TOPFlash(C) or ERE-Luciferase(D) reporter construct. For cells co-transfected ERE luciferase, they were either left alone or stimulated with 50 ng/ml Wnt3a ligand for 16 hrs. TCF(C)/ER[…](D) luciferase activities in various conditions were then assayed and analyzed in relative to untreated vector control. **P<0.01, ***P<0.001, Student's t-test (2-tailed). E: Vector or WBP2-Y192-231E mutant-expressing MCF7 were treated with indicated concentrations of 2 µM tamoxifen (Tam) and/or 15 µM FH535 for 4 days. Cell numbers were measured daily and compared in relative to vehicle treated vector-expressing cells on Day 0. F: Vector or WBP2-Y192-231E mutant-expressing MCF7 were treated with indicated concentrations (0-50 µM) of FH535 for 2 days. Cell numbers were measured and compared in relative to vehicle-treated cells. Their […] were analyzed statistically with SPSS 13.0. G: Whole cell lysates from WBP2-Y192-231E mutant-expressing MCF7 treated with 2 μM Tam and/or 15 μM FH5353 were harvested at day 2-4 post-treatment and used for IB analysis with antibodies indicated. H: Vector or WBP2-Y192-231E mutant-expressing MCF7 were treated with indicated concentrations of 100 nM fulvestrant and/or 15 µM FH535 for 4 days. Cell numbers were measured on day 2 and day 4 and compared in relative to vehicle-treated control at each day (Top Panel). These treated cells were harvested for IB analysis with antibodies indicated (Bottom Panel). […]

In experiment [2] the test system is ERα. Nature of the experiment: Immunoblot of ERα expression in drug-treated WBP2-Y192-231E mutant-expressing MCF7. As to the method: For cells co-transfected ERE-luciferase, they were either left alone or stimulated with 50 ng/ml Wnt3a ligand for 16 hrs. TCF/ERα luciferase activities in various conditions were then assayed. **P<0.01, ***P<0.001, Student's t-test (2-tailed). […] Cell numbers were measured.
Their expression levels were quantified in three independent experiments and the averages were presented relative to actin. […] For cells co-transfected ERE luciferase, they were either left alone or stimulated with 50 ng/ml Wnt3a ligand for 16 hrs. TCF(C)/ER[…](D) luciferase activities in various conditions were then assayed and analyzed in relative to untreated vector control. **P<0.01, ***P<0.001, Student's t-test (2-tailed). […] Cell numbers were measured daily and compared in relative to vehicle treated vector-expressing cells on Day 0. […] Cell numbers were measured and compared in relative to vehicle-treated cells. […] Cell numbers were measured on day 2 and day 4 and compared in relative to vehicle-treated control at each day (Top Panel). These treated cells were harvested for IB analysis with antibodies indicated (Bottom Panel).
First, we exposed WBP2 phospho-mimic expressing MCF7 cells to serial concentrations of fulvestrant (0.1 nM, 1 nM, 10 nM, 100 nM and 1 μM) and probed for ERα expression to determine the effective working concentration. […] Next, we compared the growth and proliferation of WBP2 phospho-mimic mutant expressing MCF7 in the presence of 100 nM fulvestrant or 15 μM FH535.
A general note: A western blot detects proteins with antibodies after separation by electrophoresis.

Experiment [3] concerns vector-expressing MCF7. Nature of the experiment: Cell proliferation (MTS / cell numbers) of vector-expressing MCF7. Particulars: Homo sapiens, 96 h; MCF7 cells expressing vector; day 4; 100 nM fulvestrant or 15 μM FH535; read-out: inhibition of growth / reduction of proliferation. How it is done: as §1
Whole cell lysates from vector, WBP2-WT, WBP2-Y192-231E mutant and WBP2-Y192-231F mutant expressing MCF7 (A) or Y192-231E mutant expressing MCF7 with WBP2 knockdown (B) were used for IB analysis with antibodies indicated. Their expression levels were quantified in three independent experiments and the averages were presented relative to actin. Representative blots (order in lanes from left to right: vector, WBP2, Y192-231E, Y192F) were presented as insets to the bar graphs. **P<0.01, ***P<0.001, Student's t-test (2-tailed) relative to vector. […] TCF(C)/ER[…](D) luciferase activities in various conditions were then assayed and analyzed in relative to untreated vector control. **P<0.01, ***P<0.001, Student's t-test (2-tailed). […] Cell numbers were measured daily and compared in relative to vehicle treated vector-expressing cells on Day 0. […] Cell numbers were measured and compared in relative to vehicle-treated cells. Their […] were analyzed statistically with SPSS 13.0. […] Cell numbers were measured on day 2 and day 4 and compared in relative to vehicle-treated control at each day (Top Panel). […]

On to `C[C@]12CC[C@@H]3c4ccc(O)cc4C[C@@H](CCCCCCCCC[S+]([O-])CCCC(F)(F)C(F)(F)F)[C@H]3[C@@H]1CC[C@@H]2O` (stereo partly drawn) [fulvestrant], for which the inhibition at 0.1 µM was about 40% in experiment [1] (Homo sapiens, 96 h, MCF7 cells expressing Y192-231E mutant, day 4, 100 nM fulvestrant or 15 μM FH535, read-out: inhibition of growth / reduction of proliferation) and about 50% in experiment [3]. Also, the ERα expression result in experiment [2] (WBP2 phospho-mimic expressing MCF7, one hundred nM fulvestrant, data not shown) was “almost completely abolished”.

As to `CC/C(=C(\c1ccccc1)c1ccc(OCCN(C)C)cc1)c1ccccc1` [Tamoxifen], in experiment [1] (Y192-231E-expressing MCF7 treated with Tamoxifen), the growth inhibition entry is “No significant growth inhibition”. The retardation of proliferation entry in experiment [1] (Y192-231E-expressing cells, higher doses of up to 2000 nM) was “unremarkable”. Moreover, the ERα expression entry in experiment [2] was “but not Tamoxifen significantly reduced”.
